In brackets after ≈: the same amount, converted by molar mass. A value given as a limit tells only on which side of the number the result lay.

For twelve compounds, GI50, solubility and EC50 results are on record in ChEMBL document CHEMBL1142579, “Antineoplastic agents. 527. Synthesis of 7-deoxynarcistatin, 7-deoxy-trans-dihydronarcistatin, and trans-dihydronarcistatin 1(1)” (J Nat Prod, 2005).

Data set [1] has as its system NCI-H460. Put plainly: Cytotoxicity against human NCI-H460 cells. In kind it is functional.
Data set [2] is described as follows: Aqueous solubility at 25 degC. It counts as physicochemical. Conditions: water.
Data set [3] concerns SF-268. As to the kind of experiment: Cytotoxicity against human SF-268 cells. It counts as functional.
In data set [4] the test system is P388. As to the kind of experiment: Cytotoxicity against mouse P388 cells. In kind it is functional. Conditions: read-out: ED50 (the source's name).
Data set [5] has as its system MCF7. As to the kind of experiment: Cytotoxicity against human MCF7 cells. It counts as functional.
For data set [6], the system named is KM-20L2. Put plainly: Cytotoxicity against human KM20L2 cells. In kind it is functional.
The test system of data set [7] is BXPC-3. Put plainly: Cytotoxicity against human […] cells. It counts as functional.
The subject of data set [8] is DU-145. As to the kind of experiment: Cytotoxicity against human DU145 cells. In kind it is functional.

For `O=C1N[C@H]2[C@H](O)[C@H](O)[C@@H](O)C[C@@H]2c2cc3c(cc21)OCO3`, the 50% growth inhibitory concentration (GI50) in data set [1] came to 0.043 µg/mL (≈ 0.147 µM); in data set [3] it was 0.059 µg/mL (≈ 0.201 µM); in data set [5] it was 0.034 µg/mL (≈ 0.116 µM); in data set [6], 0.051 µg/mL (≈ 0.174 µM); in data set [7] it was 0.046 µg/mL (≈ 0.157 µM); in data set [8], 0.04 µg/mL (≈ 0.136 µM). Further, the solubility in data set [2] is less than 1000 µg/mL. The EC50 in data set [4] amounted to 0.029 µg/mL (≈ 0.0989 µM).
For the compound `O=C1N[C@H]2[C@H](O)[C@H](O)[C@@H](O)C[C@@H]2c2cc3c(c(O)c21)OCO3`, the GI50 in data set [1] was 0.0092 µg/mL (≈ 0.0297 µM); in data set [3], 0.02 µg/mL (≈ 0.0647 µM); in data set [5], 0.0053 µg/mL (≈ 0.0171 µM); in data set [6] it was 0.015 µg/mL (≈ 0.0485 µM); in data set [7] it was 0.012 µg/mL (≈ 0.0388 µM); in data set [8], 0.0066 µg/mL (≈ 0.0213 µM). Further, the solubility in data set [2] is less than 1000 µg/mL. In data set [4], the EC50 is 0.0024 µg/mL (≈ 0.00776 µM).
Take `O=C1N[C@@H]2C(=C[C@H](O)[C@@H](O)[C@H]2O)c2cc3c(cc21)OCO3`: the 50% growth inhibitory concentration (GI50) worked out at 0.053 µg/mL (≈ 0.182 µM) in data set [1]; 0.12 µg/mL (≈ 0.412 µM) in data set [3]; 0.046 µg/mL (≈ 0.158 µM) in data set [5]; 0.084 µg/mL (≈ 0.288 µM) in data set [6]; 0.07 µg/mL (≈ 0.24 µM) in data set [7]; 0.051 µg/mL (≈ 0.175 µM) in data set [8]. In addition, the solubility in data set [2] is less than 1000 µg/mL. In addition, the EC50 in data set [4] is 0.019 µg/mL (≈ 0.0652 µM).
Regarding `O=C1N[C@H]2[C@@H]3OP(=O)([O-])O[C@@H]3[C@@H](O)C[C@@H]2c2cc3c(c(O)c21)OCO3.[Na+]`, the GI50 is 7.8 µg/mL in data set [1]; 8.8 µg/mL in data set [3]; 4.6 µg/mL in data set [5]; 9.6 µg/mL in data set [6]; 5.6 µg/mL in data set [7]; 5.2 µg/mL in data set [8]. Besides, in data set [2], the solubility is more than 10000 µg/mL. Besides, the EC50 in data set [4] stood at 0.88 µg/mL.
Take `O=C1N[C@H]2[C@@H]3OP(=O)([O-])O[C@@H]3[C@@H](O)C[C@@H]2c2cc3c(cc21)OCO3.[K+]`: the GI50 in data set [1], in data set [3], in data set [5], in data set [6], in data set [7] and in data set [8] was more than 1 µg/mL each time. In data set [2], the solubility is more than 5000 µg/mL. For the same compound, in data set [4], the EC50 stood at 1.7 µg/mL.
For the compound `O=C1N[C@H]2[C@@H]3OP(=O)([O-])O[C@@H]3[C@@H](O)C[C@@H]2c2cc3c(cc21)OCO3.[Na+]`, the GI50 in data set [1] is more than 10 µg/mL; in data set [3] it was more than 10 µg/mL; in data set [5], 7.2 µg/mL; in data set [6], more than 10 µg/mL; in data set [7], more than 10 µg/mL; in data set [8] it was more than 10 µg/mL. Besides, in data set [2], the solubility is more than 10000 µg/mL. The EC50 in data set [4] turned out to be 1.6 µg/mL.
Turning to `O=C1N[C@H]2[C@@H]3OP(=O)([O-])O[C@@H]3[C@@H](O)C[C@@H]2c2cc3c(cc21)OCO3.[Li+]`, the GI50 in data set [1], in data set [3], in data set [5], in data set [6], in data set [7] and in data set [8] was more than 1 µg/mL throughout. The compound further yielded a solubility in data set [2] of more than 5000 µg/mL. The EC50 in data set [4] turned out to be 0.39 µg/mL.
On to `O=C1N[C@@H]2C(=C[C@H](O)[C@H]3OP(=O)([O-])O[C@H]32)c2cc3c(cc21)OCO3.[Na+]`, for which the GI50 in data set [1] stood at 4.7 µg/mL; in data set [3], 6.3 µg/mL; in data set [5], 4 µg/mL; in data set [6], 5.6 µg/mL; in data set [7], 5.3 µg/mL; in data set [8] it was 3.9 µg/mL. Also, the solubility in data set [2] was more than 190000 µg/mL. Besides, in data set [4], the EC50 was determined as 1.7 µg/mL.
As for `O=C1N[C@@H]2C(=C[C@H](O)[C@H]3OP(=O)([O-])O[C@H]32)c2cc3c(cc21)OCO3.[Li+]`, the GI50 in data set [1], in data set [3], in data set [5], in data set [6], in data set [7] and in data set [8] was more than 1 µg/mL throughout. In addition, the solubility in data set [2] is more than 10000 µg/mL. The EC50 in data set [4] was 0.42 µg/mL.
`O=C1N[C@H]2[C@@H]3OP(=O)([O-])O[C@@H]3[C@@H](O)C[C@@H]2c2cc3c(c(O)c21)OCO3.[K+]`: the GI50 in data set [1] was more than 1 µg/mL; in data set [3], more than 1 µg/mL; in data set [5] it was 0.64 µg/mL; in data set [6], more than 1 µg/mL; in data set [7] it was more than 1 µg/mL; in data set [8], 0.54 µg/mL. Also, the solubility in data set [2] was more than 1000 µg/mL. For the same compound, the EC50 in data set [4] stood at 0.35 µg/mL.
As to `O=C1N[C@H]2[C@@H]3OP(=O)([O-])O[C@@H]3[C@@H](O)C[C@@H]2c2cc3c(c(O)c21)OCO3.[Li+]`, the 50% growth inhibitory concentration (GI50) in data set [1], in data set [3], in data set [5], in data set [6], in data set [7] and in data set [8] was more than 1 µg/mL throughout. Further, the solubility in data set [2] was more than 1000 µg/mL. In addition, the EC50 in data set [4] was 0.26 µg/mL.
On to `O=C1N[C@@H]2C(=C[C@H](O)[C@H]3OP(=O)([O-])O[C@H]32)c2cc3c(cc21)OCO3.[K+]`, for which the GI50 in data set [1], in data set [3], in data set [5], in data set [6], in data set [7] and in data set [8] was more than 1 µg/mL in each case. The compound further showed a solubility in data set [2] of more than 10000 µg/mL. Further, the EC50 in data set [4] worked out at 1.4 µg/mL.

As a reminder, the GI50 is the concentration at which growth is held to half of that of the control. The low end stands for more potent growth inhibition, the high end for less potent growth inhibition. By solubility is commonly meant the concentration that dissolves in the medium under given conditions. Low readings indicate a poorly soluble substance, high ones a readily soluble substance.
